Patent publication US20260355330A1, “CELL PENETRATING PEPTIDES AND USES THEREOF” (VECTIOPEP OÜ, priority 2022, published 2026)
Positions of bridges follow the written chain, without caps; N, C: chain ends. Non-standard residues stand in square brackets, D forms with d. Residues, ends and D or L forms follow the SMILES beside them. Chains are numbered I, II in the order given. *: point of attachment. Arachidoyl = CCCCCCCCCCCCCCCCCCCC(=O)*; Stearoyl = CCCCCCCCCCCCCCCCCC(=O)*; Orn = NCCC[C@H](N)C(=O)O

Legend:
spleen of BALB/c mice = assay: In vivo delivery of mRNA with CPPs - reporter levels in the spleen; details: for Reporter levels in the spleen (RLU): mRNA, tail vein injection, spleens harvested 16 hours after single injection, whole tissue homogenate
Method: FIG. 5: Delivery of mRNA with CPPs in vivo—reporter levels in the spleen. Spleens were harvested post mortem 16 hours post-injection. The reporter levels (RLU) were evaluated from the whole tissue homogenate.
The transfection complexes (CPP/mRNA) were formed using 10 μg of mRNA mixed with each peptide at indicated charge ratios (CRs) in MQ water in a final volume of 100 μl. CRs were calculated theoretically and account for both the positive charges of the peptide and negative charges of the nucleic acid. The transfection complexes (CPP/mRNA and CPP/pDNA) were formed using 50 μg of mRNA mixed with each peptide at indicated charge ratios (CRs) in MQ water in a final volume of 168 μl. The complexes were incubated for 30 minutes at room temperature and then mixed with equal volume of 10% glucose (resulting in a final solution of 5% glucose in a total volume of 200 μl for 10 μg dose groups and 336 μl for 50 μg dose groups) and immediately injected intravenously via the tail vein.
The reporter gene (luciferase) expression levels were evaluated from the tissue homogenate post mortem 16-24 h after single injection.
CPPs and mRNA complexes were injected through the tail vein of BALB/c mice, spleens were harvested 16 hours after the single injection and reporter signal was measured from the whole tissue homogenate (FIG. 5 and Table 5).

CHO-K1 cells = assay: Delivery of reporter mRNA with CPPs in cell culture (luciferase luminescence 24 h post-transfection); type: cell-based; details: for Average RLU/mg (reporter levels post-transfection of mRNA): firefly luciferase mRNA, 0.1 μg per well, charge ratio 3:1, serum containing media, 24 h, RLU normalised to total protein in lysate
Method: FIG. 1: Delivery of reporter mRNA with CPPs in cell culture—evaluation of reporter levels post-transfection (relative light units normalised to total protein in the cell lysate (RLU/mg)). Naked mRNA treated cells were used as controls and Lipofectamine3000 (LF3000) was used to compare the transfection efficacy with a liposome-based transfection reagent.
Adherent CHO-K1 cells were grown in Dulbecco's Modified Eagle's Medium (DMEM), which were supplemented with 0.1 mM non-essential amino acids, 1.0 mM sodium pyruvate, 100 U/ml penicillin, and […]. For complete media, 10% (final) fetal bovine serum (FBS) was added. Cells were maintained in a humidified incubator at 37 °C, 5% CO2. Cell viability and confluence was assessed daily and the cell density was reduced regularly. For cell counting, we used the CytoSMART cell counter accompanied by 0.4% trypan blue staining prior measurement. The multi-well plates with cell cultures used for experiments were incubated in a humidified incubator at 37 °C, 5% CO2.
For in vitro experiments 0.1 μg of nucleic acid (plasmid DNA (pDNA) or mRNA) was used per 96-well plate well. For CPP/NA complex formation, the diluted NA was mixed with CPP in water. Complexes were formed based on the theoretical charge ratio (CR) of positive charges from the peptide in excess to the negative charges from nucleic acid backbone, at charge ratio 3:1 with peptide in excess. Commercial reagent Lipofectamine3000 (LF3000) was used according to the manufacturer's recommendations for the transfection of adherent cells.
For reporter luminescence (expressed from firefly luciferase encoding mRNA or plasmid pDNA) assessment in adherent cell culture, 10,000 cells per 96-well plate well were seeded in 100 μl of media one day prior to transfection. Shortly before transfection, cell media was replaced with 100 μl of serum containing (10% foetal bovine serum) DMEM media. CPPs and mRNA or pDNA were mixed at a charge ratio 3:1 in ultrapure water and incubated at room temperature before addition to cells in serum containing media. Cells were transfected with 0.1 μg of mLuc per well.
24 hours post-transfection, the media was aspirated, cells were washed with 1×PBS, and 30 μl of lysis buffer (0.1% Triton X100 in 1×PBS) was added. Cells were incubated with lysis buffer for 20 min. to lyse the cells. From the lysate, 20 μl was transferred to a black frame white well 96-well plate for luminescence measurement after addition of substrate luciferin (PerkinElmer) in buffer. The luminescence signal was detected with GloMax® 96 microplate luminometer equipped with GloMax® 1.9.2 software (Promega). RLU values were converted to RLU/mg by normalization to total protein in cell lysate, reflecting total number of cells. For protein detection, a Pierce™ BCA Protein Assay Kit was used.
The present inventors have previously reported CPPs developed from the NickFect (NF) and PepFect (PF) families for plasmid (pDNA), siRNA and miRNA delivery (see, e.g. WO 2020/144317, WO 2010/039088 and WO 2012/113846). With the emergence of mRNA-based therapeutics, it was decided to investigate peptides for their ability to deliver mRNA. It was assumed that CPPs that are efficient for siRNA and miRNA delivery, e.g. histidine containing CPPs (Porosk et. al. (2019)), may be good candidates for the delivery of mRNA. Therefore, CPPs from each main family (NF55-, PF14- and NF70-derived CPPs) were tested for mRNA delivery/transfection. Naked mRNA treated and untreated cells were used as control groups. LF3000 was used to compare the transfection efficacy of liposome-based transfection reagents with the CPPs (FIG. 1).

SMILES | Reporter levels in the spleen (RLU) (spleen of BALB/c mice) | Average RLU/mg (reporter levels post-transfection of mRNA) (CHO-K1 cells) | Efficiency of mRNA transfection/delivery (CHO-K1 cells; in words, FIG. 1 / Table 2, cell culture) | Delivery of mRNA compared to NF55 (CHO-K1 cells; in words, comparator NF55) | Efficacy of mRNA delivery into the spleen in vivo (spleen of BALB/c mice; in words, FIG. 5 / Table 5)
CCCCCCCCCCCCCCCCCC(=O)N[C@@H](C)C(=O)NCC(=O)N[C@@H](Cc1ccc(O)cc1)C(=O)N[C@@H](CC(C)C)C(=O)N[C@@H](CC(C)C)C(=O)NCC(=O)NCCCC[C@H](N)C(=O)N[C@H](C(=O)N[C@@H](CC(N)=O)C(=O)N[C@@H](CC(C)C)C(=O)N[C@@H](CCCCN)C(=O)N[C@@H](C)C(=O)N[C@@H](CC(C)C)C(=O)N[C@@H](C)C(=O)N[C@@H](C)C(=O)N[C@@H](CC(C)C)C(=O)N[C@@H](C)C(=O)N[C@@H](CCCCN)C(=O)N[C@@H](C)C(=O)N[C@H](C(=O)N[C@@H](CC(C)C)C(N)=O)[C@@H](C)CC)[C@@H](C)CC [NF554] (I: H-KINLKALAALAKAIL-NH2 / II: Stearoyl-AGYLLG; amide I:1-II:C) | 83 650 RLU | 1 690 000 000 RLU/mg | the most efficient | improved delivery of mRNA over NF55 | –
CCCCCCCCCCCCCCCCCC(=O)N[C@@H](C)C(=O)NCC(=O)N[C@@H](Cc1ccc(O)cc1)C(=O)N[C@@H](CC(C)C)C(=O)N[C@@H](CC(C)C)C(=O)NCC(=O)NCCC[C@H](N)C(=O)N[C@@H](CC(C)C)C(=O)N[C@@H](CCCCN)C(=O)N[C@@H](C)C(=O)N[C@@H](CC(C)C)C(=O)N[C@@H](C)C(=O)N[C@@H](C)C(=O)N[C@@H](CC(C)C)C(=O)N[C@@H](C)C(=O)N[C@@H](CCCCN)C(=O)N[C@@H](C)C(=O)N[C@H](C(=O)N[C@@H](CC(C)C)C(N)=O)[C@@H](C)CC [NF430] (I: H-[Orn]LKALAALAKAIL-NH2 / II: Stearoyl-AGYLLG; amide I:1-II:C) | 405 318 RLU | 766 000 000 RLU/mg | – | – | highest reporter levels after mRNA delivery into the spleen in vivo
CCCCCCCCCCCCCCCCCCCC(=O)N[C@@H](C)C(=O)NCC(=O)N[C@@H](Cc1ccc(O)cc1)C(=O)N[C@@H](CC(C)C)C(=O)N[C@@H](CC(C)C)C(=O)NCC(=O)NCCCC[C@H](N)C(=O)N[C@H](C(=O)N[C@@H](CC(N)=O)C(=O)N[C@@H](CC(C)C)C(=O)N[C@@H](CCCCN)C(=O)N[C@@H](C)C(=O)N[C@@H](CC(C)C)C(=O)N[C@@H](C)C(=O)N[C@@H](C)C(=O)N[C@@H](CC(C)C)C(=O)N[C@@H](C)C(=O)N[C@@H](CCCCN)C(=O)N[C@@H](C)C(=O)N[C@H](C(=O)N[C@@H](CC(C)C)C(N)=O)[C@@H](C)CC)[C@@H](C)CC [NF412] (I: H-KINLKALAALAKAIL-NH2 / II: Arachidoyl-AGYLLG; amide I:1-II:C) | 36 759 RLU | 393 000 000 RLU/mg | – | – | –
